Legend:
hPAD4 enzyme [1] = biological target: T1, hPAD4 enzyme (Homo sapiens (Human), UniProt Q9UM07); test: RFMS1 assay (RapidFire mass spectrometry, BAEE substrate); format: biochemical; settings: 5 nM hPAD4, 250 μM BAEE, 30 min preincubation at 37° C., 90 min reaction; read-out: RFMS 1 IC50
Protocol: Compounds were solubilized in 100% DMSO to achieve a 10 mM compound concentration. Compound stock solutions were stored at RT. A series of dilutions were prepared in DMSO and mixed 8 times with 20 μL mixing volume. Final top concentration of compound in the assay is 50 μM. Final assay conditions were as follows: • Reaction volume: 26 μl • Assay buffer: 25 mM hepes, pH 7.5, 5 mM NaCl, 1 mM DTT, 0.2 mg/ml BSA, 0.01% CHAPS, 50 µM Calcium, and 5 μM TPEN • Final concentrations: 5 nM hPAD4 enzyme, 250 µM BAEE, and 0.5% DMSO • Total incubation time: 30 mins compound and enzyme preincubation at 37° C., 90 min enzyme/substrate reaction, 30 min reaction with phenyl glyoxal at 37° C. • Stop solution: 40 μl 5% TCA in ACN • 0.13 μL of compound solution was added to 13 μL of 10 nM PAD4 in assay buffer. After […] min 13 μl of 500 µM of BAEE was added in 25 mM hepes, pH 7.5, 5 mM NaCl, 1 mM DTT, 0.2 mg/ml BSA, 0.01% CHAPS, 50 μM Calcium, 5 μM TPEN was added and the reaction incubated for 90 min at 37° C. The enzymatic reaction was quenched by addition of 15 μl of 6.1N TCA, 100% Final Concentration is 20%, 35 μl of 8.5 mM phenyl glyoxal (final concentration 4 mM) is then added and the reaction is incubated for 30 min at 37° C.
After 30 minutes the plates are spun down to remove all precipitate. The enzyme reaction was quenched with an equal volume of methanol containing internal standard (modified citrulline). Samples were loaded onto the Rapid Fire RF300 system (Agilent) wherein they were first sipped for 1000 ms and then directly loaded to a C18 separations cartridge using a mixture of acetonitrile containing 0.01% formic acid for 3000 ms desalting. The flow rate of the mobile phase was 1.5 ml/min. Once the samples were eluted from the cartridge, a mobile phase of acetonitrile containing 0.01% formic acid was used to move the samples into the mass spectrometer for 4000 ms at a flow rate of 1.25 ml/min/Sciex API5500 triple quadrupole mass spectrometer (Applied Biosystems) equipped with ESI was used to analyze the peptidyl citrulline and internal standard ions.
MRM transition of product and internal standard were monitored at m/z 424.5 to 350.4 and m/z 293 to 247 respectively. The dwell time for each transition was set at 200 ms, and the ESI voltage was used at 5500 with a source temperature of 400° C. Extracted ion peaks for each transition were integrated using the Rapid Fire Integrator software. Peak area of analyte was normalized with internal standard.).
Compounds having an activity designated as “A” provided an IC50≤10 nM; compounds having an activity designated as “B” provided an IC50 11-100 nM; compounds having an activity designated as “C” provided an IC50 101-500 nM; compounds having an activity designated as “D” provided an IC50 501-1000 nM; compounds having an activity designated as “E” provided an IC50>1000 nM.

hPAD4 enzyme [2] = biological target: T1, hPAD4 enzyme; test: RFMS2 assay (RapidFire mass spectrometry, TSTGGRQGSHH peptide substrate); format: biochemical; settings: 35 nM recombinant human PAD4, 500 μM TSTGGRQGSHH peptide, 30 minutes at room temperature; read-out: RFMS 2 IC50
In short: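 Recombinant human PAD4 (35 nM) with 500 μM TSTGGRQGSHH peptide in HEPES pH 7.4, 200 mM NaCl, 2 mM CaCl2, 5 mM DTT, 1.2% DMSO, 30 min at room temperature; 3-fold compound series, top 20 μM. Quenched with formic acid; substrate and citrullinated product quantified by RapidFire MRM mass spectrometry for IC50.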

T1 sequence (Q9UM07 whole entry): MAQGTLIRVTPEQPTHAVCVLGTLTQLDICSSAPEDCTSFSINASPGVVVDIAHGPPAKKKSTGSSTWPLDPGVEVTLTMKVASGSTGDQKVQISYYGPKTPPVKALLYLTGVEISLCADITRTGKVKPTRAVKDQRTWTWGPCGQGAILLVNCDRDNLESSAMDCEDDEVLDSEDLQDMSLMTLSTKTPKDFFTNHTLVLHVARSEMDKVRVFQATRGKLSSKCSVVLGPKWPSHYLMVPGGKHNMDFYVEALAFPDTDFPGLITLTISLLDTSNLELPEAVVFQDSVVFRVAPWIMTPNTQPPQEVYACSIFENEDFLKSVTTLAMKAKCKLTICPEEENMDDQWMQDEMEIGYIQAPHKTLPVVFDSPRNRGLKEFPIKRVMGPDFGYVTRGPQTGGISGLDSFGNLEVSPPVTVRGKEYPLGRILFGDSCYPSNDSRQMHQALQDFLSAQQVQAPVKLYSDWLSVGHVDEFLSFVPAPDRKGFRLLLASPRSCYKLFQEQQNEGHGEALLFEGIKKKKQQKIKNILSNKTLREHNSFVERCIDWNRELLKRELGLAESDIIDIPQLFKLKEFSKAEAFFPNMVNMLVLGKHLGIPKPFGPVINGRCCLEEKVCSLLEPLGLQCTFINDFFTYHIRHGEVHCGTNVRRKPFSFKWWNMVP

| SMILES | IC50 (hPAD4 enzyme [1]) | IC50 (hPAD4 enzyme [2]) |
| --- | --- | --- |
| COCCn1c(-c2nc3cc4c(cc3n2C)CCN(C[C@H](N)CF)C4=O)cc2cccc(OC)c21 [Example 102, (S)-6-(2-amino-3-fluoropropyl)-2-(7-methoxy-1-(2-methoxyethyl)-1H-indol-2-yl)-1-methyl-1,6,7,8-tetrahydro-5H-imidazo[4,5-g]isoquinolin-5-one] | 101 to 500 nM | 101 to 500 nM |
| COc1cccc2cc(-c3nc4cc5c(cc4n3C)CCN(C[C@H](N)CF)C5=O)n(Cc3cc(C)no3)c12 [Example 113, (S)-6-(2-amino-3-fluoropropyl)-2-(7-methoxy-1-((3-methylisoxazol-5-yl)methyl)-1H-indol-2-yl)-1-methyl-1,6,7,8-tetrahydro-5H-imidazo[4,5-g]isoquinolin-5-one] | 11 to 100 nM | 101 to 500 nM |
| COc1cccc2cc(-c3nc4cc5c(cc4n3C)CCN(C[C@H](N)CF)C5=O)n(Cc3ncco3)c12 [Example 119, (S)-6-(2-amino-3-fluoropropyl)-2-(7-methoxy-1-(oxazol-2-ylmethyl)-1H-indol-2-yl)-1-methyl-1,6,7,8-tetrahydro-5H-imidazo[4,5-g]isoquinolin-5-one] | 11 to 100 nM | 101 to 500 nM |
| COc1cccc2cc(-c3nc4cc5c(cc4n3C)CCN(C[C@H](N)CF)C5=O)n(Cc3nc(C)co3)c12 [Example 124, (S)-6-(2-amino-3-fluoropropyl)-2-(7-methoxy-1-((4-methyloxazol-2-yl)methyl)-1H-indol-2-yl)-1-methyl-1,6,7,8-tetrahydro-5H-imidazo[4,5-g]isoquinolin-5-one] | 11 to 100 nM | 101 to 500 nM |
| COc1cccc2cc(-c3nc4cc5c(cc4n3C)CCN(C[C@H](N)CF)C5=O)n(Cc3nccs3)c12 [Example 127, (S)-6-(2-amino-3-fluoropropyl)-2-(7-methoxy-1-(thiazol-2-ylmethyl)-1H-indol-2-yl)-1-methyl-1,6,7,8-tetrahydro-5H-imidazo[4,5-g]isoquinolin-5-one] | 101 to 500 nM | 101 to 500 nM |
| COc1cccc2cc(-c3nc4cc5c(cc4n3C)CCN(C[C@H](N)CF)C5=O)n(Cc3cc(N)no3)c12 [Example 146, (S)-6-(2-amino-3-fluoropropyl)-2-(1-((3-aminoisoxazol-5-yl)methyl)-7-methoxy-1H-indol-2-yl)-1-methyl-1,6,7,8-tetrahydro-5H-imidazo[4,5-g]isoquinolin-5-one] | 11 to 100 nM | 101 to 500 nM |
| CN1CC(COc2cccc3cc(-c4nc5cc6c(cc5n4C)CCN(C[C@H](N)CF)C6=O)n(CC4CC4)c23)CC1=O (stereo partly drawn) [Example 184, 6-((S)-2-amino-3-fluoropropyl)-2-(1-(cyclopropylmethyl)-7-((1-methyl-5-oxopyrrolidin-3-yl)methoxy)-1H-indol-2-yl)-1-methyl-1,6,7,8-tetrahydro-5H-imidazo[4,5-g]isoquinolin-5-one] | 11 to 100 nM | 101 to 500 nM |
| Cn1c(-c2cc3cccc(OC[C@@H]4CNC(=O)C4)c3n2CC2CC2)nc2cc3c(cc21)CCN(C[C@H](N)CF)C3=O [Example 190, 6-((S)-2-amino-3-fluoropropyl)-2-(1-(cyclopropylmethyl)-7-(((S)-5-oxopyrrolidin-3-yl)methoxy)-1H-indol-2-yl)-1-methyl-1,6,7,8-tetrahydro-5H-imidazo[4,5-g]isoquinolin-5-one] | ≤ 10 nM | 11 to 100 nM |

The next lines start with the values.

| IC50 (hPAD4 enzyme [1]) | IC50 (hPAD4 enzyme [2]) | SMILES |
| --- | --- | --- |
| ≤ 10 nM | 101 to 500 nM | Cn1c(-c2cc3cccc(OCCn4cncn4)c3n2CC2CC2)nc2cc3c(cc21)CCN(C[C@H](N)CF)C3=O [Example 150, (S)-2-(7-(2-(1H-1,2,4-triazol-1-yl)ethoxy)-1-(cyclopropylmethyl)-1H-indol-2-yl)-6-(2-amino-3-fluoropropyl)-1-methyl-1,6,7,8-tetrahydro-5H-imidazo[4,5-g]isoquinolin-5-one] |
| 11 to 100 nM | 101 to 500 nM | Cc1nccn1CCOc1cccc2cc(-c3nc4cc5c(cc4n3C)CCN(C[C@H](N)CF)C5=O)n(CC3CC3)c12 [Example 165, (S)-6-(2-amino-3-fluoropropyl)-2-(1-(cyclopropyl-methyl)-7-(2-(2-methyl-1H-imidazol-1-yl)ethoxy)-1H-indol-2-yl)-1-methyl-1,6,7,8-tetrahydro-5H-imidazo [4,5-g]isoquinolin-5-one] |
| 11 to 100 nM | 101 to 500 nM | Cn1cncc1CCOc1cccc2cc(-c3nc4cc5c(cc4n3C)CCN(C[C@H](N)CF)C5=O)n(CC3CC3)c12 [Example 169, (S)-6-(2-amino-3-fluoropropyl)-2-(1-(cyclopropyl-methyl)-7-(2-(1-methyl-1H-imidazol-5-yl)ethoxy)-1H-indol-2-yl)-1-methyl-1,6,7,8-tetrahydro-5H-imidazo [4,5-g]isoquinolin-5-one] |
| 11 to 100 nM | 11 to 100 nM | Cn1c(-c2cc3cccc(OCc4ccn[nH]4)c3n2CC2CC2)nc2cc3c(cc21)CCN(C[C@H](N)CF)C3=O [Example 174, (S)-2-(7-((1H-pyrazol-5-yl)methoxy)-1-(cyclopropyl-methyl)-1H-indol-2-yl)-6-(2-amino-3-fluoropropyl)-1-methyl-1,6,7,8-tetrahydro-5H-imidazo[4,5-g] isoquinolin-5-one] |
| ≤ 10 nM | 11 to 100 nM | Cn1c(-c2cc3cccc(OCCn4ccnn4)c3n2CC2CC2)nc2cc3c(cc21)CCN(C[C@H](N)CF)C3=O [Example 181, (S)-2-(7-(2-(1H-1,2,3-triazol-1-yl)ethoxy)-1-(cyclopropylmethyl)-1H-indol-2-yl)-6-(2-amino-3-fluoropropyl)-1-methyl-1,6,7,8-tetrahydro-5H-imidazo[4,5-g]isoquinolin-5-one] |
| ≤ 10 nM | 11 to 100 nM | Cn1c(-c2cc3cccc(OCCn4cnnn4)c3n2CC2CC2)nc2cc3c(cc21)CCN(C[C@H](N)CF)C3=O [Example 186, (S)-2-(7-(2-(1H-tetrazol-1-yl)ethoxy)-1-(cyclopropylmethyl)-1H-indol-2-yl)-6-(2-amino-3-fluoropropyl)-1-methyl-1,6,7,8-tetrahydro-5H-imidazo[4,5-g]isoquinolin-5-one] |
| ≤ 10 nM | 11 to 100 nM | Cn1c(-c2cc3cccc(OCCc4ccno4)c3n2CC2CC2)nc2cc3c(cc21)CCN(C[C@H](N)CF)C3=O [Example 195, (S)-6-(2-amino-3-fluoropropyl)-2-(1-(cyclopropylmethyl)-7-(2-(isoxazol-5-yl)ethoxy)-1H-indol-2-yl)-1-methyl-1,6,7,8-tetrahydro-5H-imidazo[4,5-g]isoquinolin-5-one] |
| ≤ 10 nM | 11 to 100 nM | Cn1c(-c2cc3cccc(OCCn4ccnc4)c3n2CC2CC2)nc2cc3c(cc21)CCN(C[C@H](N)CF)C3=O [Example 198, (S)-2-(7-(2-(1H-imidazol-1-yl)ethoxy)-1-(cyclopropylmethyl)-1H-indol-2-yl)-6-(2-amino-3-fluoropropyl)-1-methyl-1,6,7,8-tetrahydro-5H-imidazo[4,5-g]isoquinolin-5-one] |
| ≤ 10 nM | 11 to 100 nM | Cn1c(-c2cc3cccc(OCCc4c[nH]nn4)c3n2CC2CC2)nc2cc3c(cc21)CCN(C[C@H](N)CF)C3=O [Example 199, (S)-2-(7-(2-(1H-1,2,3-triazol-4-yl)ethoxy)-1-(cyclopropyl-methyl)-1H-indol-2-yl)-6-(2-amino-3-fluoropropyl)-1-methyl-1,6,7,8-tetrahydro-5H-imidazo[4,5-g]isoquinolin-5-one] |
| ≤ 10 nM | 101 to 500 nM | COC(=O)N(C)CCOc1cccc2cc(-c3nc4cc5c(cc4n3C)CCN(C[C@H](N)CF)C5=O)n(CC3CC3)c12 [Example 201, methyl (S)-(2-((2-(6-(2-amino-3-fluoropropyl)-1-methyl-5-oxo-5,6,7,8-tetrahydro-1H-imidazo[4,5-g]isoquinolin-2-yl)-1-(cyclopropylmethyl)-1H-indol-7-yl)oxy)ethyl)(methyl) carbamate] |
